Reference: patent publication US11717508B2, “Compounds, compositions, and methods for inhibiting bacterial growth” (priority 2016, dated 2023)

Test system: DosRST regulon
Assay type: cell-based
[1] = Rv0569, WT Mtb treated with HC102A compared to DMSO
[2] = Rv0570 nrdZ, WT Mtb treated with HC102A compared to DMSO
[3] = Rv0571c, WT Mtb treated with HC102A compared to DMSO
[4] = Rv0572c, WT Mtb treated with HC102A compared to DMSO
[5] = Rv0573c, WT Mtb treated with HC102A compared to DMSO
[6] = Rv0574c, WT Mtb treated with HC102A compared to DMSO
[7] = Rv1733c, WT Mtb treated with HC102A compared to DMSO
[8] = Rv1735c, WT Mtb treated with HC102A compared to DMSO
[9] = Rv1736c narX, WT Mtb treated with HC102A compared to DMSO
[10] = Rv1737c narK2, WT Mtb treated with HC102A compared to DMSO
[11] = Rv1738, WT Mtb treated with HC102A compared to DMSO
[12] = Rv1790 PPE, WT Mtb treated with HC102A compared to DMSO
[13] = Rv1812c, WT Mtb treated with HC102A compared to DMSO
[14] = Rv1813c, WT Mtb treated with HC102A compared to DMSO

## C[C@@H]1CC(C)(C)C[C@]2(C1)NC(=O)NC2=O (racemic) [HC102A, 7,7,9-trimethyl-1,3-diazaspiro[4.5]decane-2,4-dione]
40 μM, 6 days, >2-fold, p<0.05
  genes downregulated by compound (total): 55 genes
CDC1551, 40 μM, 6 days
  downregulation of tgs1 gene (transcriptional profiling): ~20 fold
[1]
  Fold change, gene MT0595: 0.1089
  log2 Fold change, gene MT0595: −3.199
Rv0569, WT Mtb treated with HC102A, replicate 1
  Counts per million (CPM) WT_HC102A1, gene MT0595: 21.38 CPM
Rv0569, WT Mtb treated with HC102A, replicate 2
  Counts per million (CPM) WT_HC102A2, gene MT0595: 25.92 CPM
[2]
  Fold change, gene MT0596: 0.04533
  log2 Fold change, gene MT0596: −4.464
Rv0570 nrdZ, WT Mtb treated with HC102A, replicate 1
  Counts per million (CPM) WT_HC102A1, gene MT0596: 102.7 CPM
Rv0570 nrdZ, WT Mtb treated with HC102A, replicate 2
  Counts per million (CPM) WT_HC102A2, gene MT0596: 94.1 CPM
[3]
  Fold change, gene MT0597: 0.2805
  log2 Fold change, gene MT0597: −1.834
Rv0571c, WT Mtb treated with HC102A, replicate 1
  Counts per million (CPM) WT_HC102A1, gene MT0597: 94.1998 CPM
Rv0571c, WT Mtb treated with HC102A, replicate 2
  Counts per million (CPM) WT_HC102A2, gene MT0597: 81.32 CPM
[4]
  Fold change, gene MT0599: 0.2441
  log2 Fold change, gene MT0599: −2.034
Rv0572c, WT Mtb treated with HC102A, replicate 1
  Counts per million (CPM) WT_HC102A1, gene MT0599: 127.4 CPM
Rv0572c, WT Mtb treated with HC102A, replicate 2
  Counts per million (CPM) WT_HC102A2, gene MT0599: 180.6 CPM
[5]
  Fold change, gene MT0601: 0.1932
  log2 Fold change, gene MT0601: −2.372
Rv0573c, WT Mtb treated with HC102A, replicate 1
  Counts per million (CPM) WT_HC102A1, gene MT0601: 13.82 CPM
Rv0573c, WT Mtb treated with HC102A, replicate 2
  Counts per million (CPM) WT_HC102A2, gene MT0601: 19.29 CPM
[6]
  Fold change, gene MT0602: 0.1416
  log2 Fold change, gene MT0602: −2.82
Rv0574c, WT Mtb treated with HC102A, replicate 1
  Counts per million (CPM) WT_HC102A1, gene MT0602: 45.11 CPM
Rv0574c, WT Mtb treated with HC102A, replicate 2
  Counts per million (CPM) WT_HC102A2, gene MT0602: 51.54 CPM
[7]
  Fold change, gene MT1774: 0.07551
  log2 Fold change, gene MT1774: −3.727
Rv1733c, WT Mtb treated with HC102A, replicate 1
  Counts per million (CPM) WT_HC102A1, gene MT1774: 109.6 CPM
Rv1733c, WT Mtb treated with HC102A, replicate 2
  Counts per million (CPM) WT_HC102A2, gene MT1774: 116 CPM
[8]
  Fold change, gene MT1776: 0.2742
  log2 Fold change, gene MT1776: −1.867
Rv1735c, WT Mtb treated with HC102A, replicate 1
  Counts per million (CPM) WT_HC102A1, gene MT1776: 5.202 CPM
Rv1735c, WT Mtb treated with HC102A, replicate 2
  Counts per million (CPM) WT_HC102A2, gene MT1776: 4.163 CPM
[9]
  Fold change, gene MT1778: 0.05545
  log2 Fold change, gene MT1778: −4.173
Rv1736c narX, WT Mtb treated with HC102A, replicate 1
  Counts per million (CPM) WT_HC102A1, gene MT1778: 234.5 CPM
Rv1736c narX, WT Mtb treated with HC102A, replicate 2
  Counts per million (CPM) WT_HC102A2, gene MT1778: 246.1 CPM
[10]
  Fold change, gene MT1779: 0.04997
  log2 Fold change, gene MT1779: −4.323
Rv1737c narK2, WT Mtb treated with HC102A, replicate 1
  Counts per million (CPM) WT_HC102A1, gene MT1779: 72.42 CPM
Rv1737c narK2, WT Mtb treated with HC102A, replicate 2
  Counts per million (CPM) WT_HC102A2, gene MT1779: 91.94 CPM
[11]
  Fold change, gene MT1780: 0.1174
  log2 Fold change, gene MT1780: −3.091
Rv1738, WT Mtb treated with HC102A, replicate 1
  Counts per million (CPM) WT_HC102A1, gene MT1780: 337.8 CPM
Rv1738, WT Mtb treated with HC102A, replicate 2
  Counts per million (CPM) WT_HC102A2, gene MT1780: 628.9 CPM
[12]
  Fold change, gene MT1839: 0.466
  log2 Fold change, gene MT1839: −1.102
Rv1790 PPE, WT Mtb treated with HC102A, replicate 1
  Counts per million (CPM) WT_HC102A1, gene MT1839: 29.83 CPM
Rv1790 PPE, WT Mtb treated with HC102A, replicate 2
  Counts per million (CPM) WT_HC102A2, gene MT1839: 18.94 CPM
[13]
  Fold change, gene MT1860: 0.3171
  log2 Fold change, gene MT1860: −1.657
Rv1812c, WT Mtb treated with HC102A, replicate 1
  Counts per million (CPM) WT_HC102A1, gene MT1860: 54.94 CPM
Rv1812c, WT Mtb treated with HC102A, replicate 2
  Counts per million (CPM) WT_HC102A2, gene MT1860: 65.84 CPM
[14]
  Fold change, gene MT1861: 0.06232
  log2 Fold change, gene MT1861: −4.004
Rv1813c, WT Mtb treated with HC102A, replicate 1
  Counts per million (CPM) WT_HC102A1, gene MT1861: 121.3 CPM
